Test results published in paper PMC4578295 (Chemistry & biology, 2015).

Target: T1, KDM4B (Homo sapiens, UniProt O94953)
T1 sequence (O94953 1-500): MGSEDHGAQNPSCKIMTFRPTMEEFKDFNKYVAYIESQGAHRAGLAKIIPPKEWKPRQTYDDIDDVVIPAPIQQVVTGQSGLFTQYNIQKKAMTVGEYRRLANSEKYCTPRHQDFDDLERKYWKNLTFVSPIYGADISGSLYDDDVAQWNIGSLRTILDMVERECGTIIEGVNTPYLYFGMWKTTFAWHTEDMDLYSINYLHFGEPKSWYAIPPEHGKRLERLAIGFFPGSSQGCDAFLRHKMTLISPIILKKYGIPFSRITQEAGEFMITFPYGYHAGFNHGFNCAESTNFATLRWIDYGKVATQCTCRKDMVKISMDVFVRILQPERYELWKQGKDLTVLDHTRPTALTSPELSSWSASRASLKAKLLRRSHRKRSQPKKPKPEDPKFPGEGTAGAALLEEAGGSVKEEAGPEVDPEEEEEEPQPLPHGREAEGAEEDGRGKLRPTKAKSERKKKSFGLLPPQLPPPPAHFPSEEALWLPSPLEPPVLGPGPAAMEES
Assay: 1H-15N TROSY-HSQC NMR shifts
Format: biochemical

Compound `O=C(NCCCc1ccccc1)c1cccc(-c2cc(O)c3ncccc3c2)c1` [B3, NCGC00244536] has an IC50 of about 10 nM.
